In brackets after ≈: the same amount, converted by molar mass.
Key:
[1] = Clearance in mouse at 5 mg/kg, po; assay type: ADME, organism-based; conditions: in vivo
[2] = Thermodynamic solubility of compound at pH 7.4; assay type: physicochemical; conditions: buffer, read-out: Therm_solubility
[3] = Clearance in mouse at 1 mg/kg, iv; assay type: ADME, organism-based; conditions: in vivo
[4] = AUC (0 to infinity) in mouse at 1 mg/kg, iv; assay type: ADME, organism-based; set-up: dose 1 mg/kg, time infinity, route intravenous; conditions: in vivo
[5] = Terminal elimination half-life in mouse at 5 mg/kg, po; assay type: ADME, organism-based; conditions: in vivo, read-out: beta t1/2 (converted)
[6] = AUC (0 to infinity) in mouse at 5 mg/kg, po; assay type: ADME, organism-based; set-up: dose 5 mg/kg, route oral, time infinity; conditions: in vivo
[7] = Terminal elimination half life in mouse at 1 mg/kg, iv; assay type: ADME, organism-based; conditions: in vivo, read-out: beta t1/2 (converted)
[8] = Permeability across apical side to basolateral side of membrane in human Caco2 cells; assay type: ADME, cell-based; conditions: Caco-2, read-out: permeability
[9] = AUC (0 to 8 hrs) in mouse at 5 mg/kg, po measured up to 8 hrs; assay type: ADME, organism-based; set-up: dose 5 mg/kg, time < 8 hr, route oral; conditions: in vivo
[10] = AUC (0 to 8 hrs) in mouse at 1 mg/kg, iv measured up to 8 hrs; assay type: ADME, organism-based; set-up: time < 8 hr, dose 1 mg/kg, route intravenous; conditions: in vivo
[11] = Oral bioavailability in mouse at 5 mg/kg; assay type: ADME, organism-based; conditions: in vivo
[12] = Clearance in mouse liver microsomes; assay type: ADME, Microsome; conditions: read-out: CLH
[13] = Permeability across basolateral side to apical side of membrane in human Caco2 cells; assay type: ADME, cell-based; conditions: Caco-2, read-out: permeability
[14] = Clearance in human liver microsomes; assay type: ADME, Microsome; conditions: read-out: CLH
[15] = Tmax in mouse at 5 mg/kg, po; assay type: ADME, organism-based; conditions: in vivo
[16] = Apparent volume of distribution in mouse at 1 mg/kg, iv; assay type: ADME, organism-based; conditions: in vivo, read-out: Vz
[17] = Cmax in mouse at 5 mg/kg, po measured after 0.5 hrs; assay type: ADME, organism-based; set-up: dose 5 mg/kg, route oral; conditions: in vivo
[18] = Apparent volume of distribution in mouse at 5 mg/kg, po; assay type: ADME, organism-based; conditions: in vivo
[19] = Cmax in mouse at 5 mg/kg, po measured after 10 mins; assay type: ADME, organism-based; set-up: dose 5 mg/kg, route oral; conditions: in vivo
[20] = Initial plasma concentration in mouse at 1 mg/kg, iv; assay type: ADME, organism-based

| CL/F [1] [mL/min/kg] | solubility thermodynamic [2] [µg/mL] | clearance [3] [mL/min/kg] | AUC(0-inf) [4] [ng·h/mL] | half-life [5] [h] | AUC(0-inf) [6] [ng·h/mL] | half-life [7] [h] | Papp A→B [8] [×10⁻⁶ cm/s] | AUC(0-t) at 8 h [9] [ng·h/mL] | AUC(0-t) at 8 h [10] [ng·h/mL] | bioavailability [11] [%] | microsomal CLint [12] [µL/min/mg] | Papp B→A [13] [×10⁻⁶ cm/s] | microsomal CLint [14] [µL/min/mg] | Tmax [15] [h] | Vd [16] [L/kg] | Cmax [17] [ng/mL] | Vz [18] [L/kg] | Cmax [19] [ng/mL] | C0 [20] [ng/mL] | SMILES |
| --- | --- | --- | --- | --- | --- | --- | --- | --- | --- | --- | --- | --- | --- | --- | --- | --- | --- | --- | --- | --- |
| 35 | 28 (≈ 74 µM) | 28.3 | 579 | 2.8 | 2360 | 2.2 | 10 | 2080 | 568 | 73 | 3.1 | 25 | < 10 | 0.5 | 5.5 | 658 | 8.7 |  |  | CC(C)Oc1cc(-c2cncc(-c3cnn(C4COC4)c3)c2)ccc1C(N)=O |
| 168 | 45 (≈ 176 µM) | 100 | 166 | 1.6 | 494 | 3.4 | 32 | 488 | 160 | 61 | 9.4 | 20 | 5.8 | 0.17 | 30 |  | 23 | 615 | 678 | CC(C)Oc1cc(-c2cccnc2)ccc1C(N)=O |

The next lines start with the compound.

| SMILES | CL/F [1] [mL/min/kg] | solubility thermodynamic [2] [µg/mL] | clearance [3] [mL/min/kg] | AUC(0-inf) [4] [ng·h/mL] | half-life [5] [h] | AUC(0-inf) [6] [ng·h/mL] | half-life [7] [h] | Papp A→B [8] [×10⁻⁶ cm/s] | AUC(0-t) at 8 h [9] [ng·h/mL] | AUC(0-t) at 8 h [10] [ng·h/mL] | bioavailability [11] [%] | microsomal CLint [12] [µL/min/mg] | Papp B→A [13] [×10⁻⁶ cm/s] | microsomal CLint [14] [µL/min/mg] | Tmax [15] [h] | Vd [16] [L/kg] | Cmax [17] [ng/mL] | Vz [18] [L/kg] | Cmax [19] [ng/mL] | C0 [20] [ng/mL] |
| --- | --- | --- | --- | --- | --- | --- | --- | --- | --- | --- | --- | --- | --- | --- | --- | --- | --- | --- | --- | --- |
| Cc1n[nH]c(C)c1-c1cncc(-c2ccc(C(N)=O)c(OC(C)C)c2)c1 |  | 10 (≈ 28.5 µM) |  |  |  |  |  | 6.2 |  |  |  | 62 | 41 |  |  |  |  |  |  |  |
| Cc1[nH]ncc1-c1cncc(-c2ccc(C(N)=O)c(OC(C)C)c2)c1 |  | 11 (≈ 32.7 µM) |  |  |  |  |  | 8.3 |  |  |  | 251 | 33 | 18 |  |  |  |  |  |  |
| Cc1c(-c2cncc(-c3ccc(C(N)=O)c(OC(C)C)c3)c2)cnn1C |  | 7.3 (≈ 20.8 µM) |  |  |  |  |  | 27 |  |  |  | 25.1 | 21 | 7.9 |  |  |  |  |  |  |
